Data as given in patent publication US12516051B1, “Small molecule degraders and fluorescent probes of PXR” (St. Jude Children's Research Hospital, Inc., priority 2024, dated 2026).
Where two headings read alike, the source gives them in different places.

Test system: SNU-C4 HiBiT-PXR KI cells
Assay: Cytotoxicity, CellTiter-Glo Luminescent Cell Viability Assay
Format: cell-based
Protocol: An Echo 655T Acoustic Liquid Handler was used to dispense 75 nL/well of DMSO or PROTAC dilution into white tissue culture-treated 384-well plates. For 24 h cytotoxicity, 25 μL assay media containing 1×10^4 cells was added to each well to match the conditions for the degradation assays. For 72 h cytotoxicity, 25 μL RPMI with 10% FBS containing 2.5×10^3 cells was added to each well to match normal growth conditions. […] After 24 h or 72 h, the CellTiter-Glo Luminescent Cell Viability Assay (Promega, cat. #G7572) and an EnVision microplate reader were used to assess cytotoxicity. DMSO wells with cells served as positive controls, and wells without cells served as negative controls. The percent cell viability for each well was calculated using equation 5,

[1] = read-out: 24 h CC50, Table 2, 24 h treatment
[2] = read-out: 72 h CC50, Table 2, 72 h treatment
[3] = read-out: 24 h CC50, Table 3, 24 h treatment
[4] = read-out: 72 h CC50, Table 3, 72 h treatment

Row | SMILES | CC50 [1] [µM] | CC50 [2] [µM] | CC50 [3] [µM] | CC50 [4] [µM]
1 | COc1ccc(OC)c(-n2nnc(C(=O)Nc3cc(OCCCCCCOCCOCC(=O)N[C@H](C(=O)N4C[C@H](O)C[C@H]4C(=O)NCc4ccc(-c5scnc5C)cc4)C(C)(C)C)cc(C(C)(C)C)c3)c2C)c1 [Compound 15, N-(3-(TERT-BUTYL)-5-((6-(2-(2-(((S)-1-((2S,4R)-4-HYDROXY-2-((4-(4-METHYLTHIAZOL-5 YL)BENZYL)CARBAMOYL)PYRROLIDIN-1-YL)-3,3-DIMETHYL-1-OXOBUTAN-2-YL)AMINO)-2-OXOETHOXY)ETHOXY)HEXYL)OXY)PHENYL)-1-(2,5-DIMETHOXYPHENYL)-5-METHYL-1H-1,2,3-TRIAZOLE-4-CARBOXAMIDE] | > 30 | > 30 | – | –
2 | CCC[C@H](CC)Oc1ccc(C(=O)N[C@H](C(=O)N2C[C@H](O)C[C@H]2C(=O)NCc2ccc(-c3scnc3C)cc2)C(C)(C)C)cc1NC(=O)c1nnn(-c2cc(OC)ccc2OC)c1C [Compound 16] | > 30 | > 30 | – | –
3 | CCC[C@H](CC)Oc1ccc(C(=O)NCCCCC(=O)N[C@H](C(=O)N2C[C@H](O)C[C@H]2C(=O)NCc2ccc(-c3scnc3C)cc2)C(C)(C)C)cc1NC(=O)c1nnn(-c2cc(OC)ccc2OC)c1C [Compound 17] | > 30 | > 30 | – | –
4 | CCC[C@H](CC)Oc1ccc(C(=O)NCCOCCOCC(=O)N[C@H](C(=O)N2C[C@H](O)C[C@H]2C(=O)NCc2ccc(-c3scnc3C)cc2)C(C)(C)C)cc1NC(=O)c1nnn(-c2cc(OC)ccc2OC)c1C [Compound 18] | > 30 | > 30 | – | –
5 | CCC[C@H](CC)Oc1ccc(C(=O)NCCCCCCCCC(=O)N[C@H](C(=O)N2C[C@H](O)C[C@H]2C(=O)NCc2ccc(-c3scnc3C)cc2)C(C)(C)C)cc1NC(=O)c1nnn(-c2cc(OC)ccc2OC)c1C [Compound 19] | > 30 | > 30 | – | –
6 | CCC[C@H](CC)Oc1ccc(C(=O)NCCOCCOCCOCCOCC(=O)N[C@H](C(=O)N2C[C@H](O)C[C@H]2C(=O)NCc2ccc(-c3scnc3C)cc2)C(C)(C)C)cc1NC(=O)c1nnn(-c2cc(OC)ccc2OC)c1C [Compound 21] | > 30 | > 30 | – | –
7 | COc1cc(OCC(=O)N[C@H](C(=O)N2C[C@H](O)C[C@H]2C(=O)NCc2ccc(-c3scnc3C)cc2)C(C)(C)C)c(C)cc1-n1nnc(S(=O)(=O)c2ccc(C(C)(C)C)cc2)c1C [Compound 22, (2S,4R)-1-((S)-2-(2-(4-(4-((4-(TERT-BUTYL)PHENYL)SULFONYL)-5-METHYL-1H-1,2,3-TRIAZOL-1-YL)-5-METHOXY-2-METHYLPHENOXY)ACETAMIDO)-3,3-DIMETHYLBUTANOYL)-4-HYDROXY-N-(4-(4-METHYLTHIAZOL-5 YL)BENZYL)PYRROLIDINE-2-CARBOXAMIDE] | – | – | > 30 | > 30
8 | COc1cc(OCCCC(=O)N[C@H](C(=O)N2C[C@H](O)C[C@H]2C(=O)NCc2ccc(-c3scnc3C)cc2)C(C)(C)C)c(C)cc1-n1nnc(S(=O)(=O)c2ccc(C(C)(C)C)cc2)c1C [Compound 23, (2S,4R)-1-((S)-2-(4-(4-(4-((4-(TERT-BUTYL)PHENYL)SULFONYL)-5-METHYL-1H-1,2,3-TRIAZOL-1-YL)-5-METHOXY-2-METHYLPHENOXY)BUTANAMIDO)-3,3-DIMETHYLBUTANOYL)-4-HYDROXY-N-(4-(4-METHYLTHIAZOL-5-YL)BENZYL)PYRROLIDINE-2-CARBOXAMIDE] | – | – | > 30 | > 30
9 | COc1cc(OCCOCCC(=O)N[C@H](C(=O)N2C[C@H](O)C[C@H]2C(=O)NCc2ccc(-c3scnc3C)cc2)C(C)(C)C)c(C)cc1-n1nnc(S(=O)(=O)c2ccc(C(C)(C)C)cc2)c1C [Compound 24, (2S,4R)-1-((S)-2-(3-(2-(4-(4-((4-(TERT-BUTYL)PHENYL)SULFONYL)-5-METHYL-1H-1,2,3-TRIAZOL-1-YL)-5-METHOXY-2-METHYLPHENOXY)ETHOXY)PROPANAMIDO)-3,3-DIMETHYLBUTANOYL)-4-HYDROXY-N-(4-(4-METHYLTHIAZOL-5-YL)BENZYL)PYRROLIDINE-2-CARBOXAMIDE] | – | – | > 30 | > 30
10 | COc1cc(OCCCCCCCC(=O)N[C@H](C(=O)N2C[C@H](O)C[C@H]2C(=O)NCc2ccc(-c3scnc3C)cc2)C(C)(C)C)c(C)cc1-n1nnc(S(=O)(=O)c2ccc(C(C)(C)C)cc2)c1C [Compound 25, (2S,4R)-1-((S)-2-(8-(4-(4-((4-(TERT-BUTYL)PHENYL)SULFONYL)-5-METHYL-1H-1,2,3-TRIAZOL-1-YL)-5-METHOXY-2-METHYLPHENOXY)OCTANAMIDO)-3,3-DIMETHYLBUTANOYL)-4-HYDROXY-N-(4-(4-METHYLTHIAZOL-5-YL)BENZYL)PYRROLIDINE-2-CARBOXAMIDE] | – | – | > 30 | > 30
11 | COc1cc(OCCOCCOCCC(=O)N[C@H](C(=O)N2C[C@H](O)C[C@H]2C(=O)NCc2ccc(-c3scnc3C)cc2)C(C)(C)C)c(C)cc1-n1nnc(S(=O)(=O)c2ccc(C(C)(C)C)cc2)c1C [Compound 26, (2S,4R)-1-((S)-2-(3-(2-(2-(4-(4-((4-(TERT-BUTYL)PHENYL)SULFONYL)-5-METHYL-1H-1,2,3-TRIAZOL-1-YL)-5-METHOXY-2-METHYLPHENOXY)ETHOXY)ETHOXY)PROPANAMIDO)-3,3-DIMETHYLBUTANOYL)-4-HYDROXY-N-(4-(4-METHYLTHIAZOL-5-YL)BENZYL)PYRROLIDINE-2-CARBOXAMIDE] | – | – | > 30 | > 30
12 | COc1cc(OCCOCCOCCOCCC(=O)N[C@H](C(=O)N2C[C@H](O)C[C@H]2C(=O)NCc2ccc(-c3scnc3C)cc2)C(C)(C)C)c(C)cc1-n1nnc(S(=O)(=O)c2ccc(C(C)(C)C)cc2)c1C [Compound 27, (2S,4R)-1-((S)-14-(TERT-BUTYL)-1-(4-(4-((4-(TERT-BUTYL)PHENYL)SULFONYL)-5-METHYL-1H-1,2,3-TRIAZOL-1-YL)-5-METHOXY-2-METHYLPHENOXY)-12-OXO-3,6,9-TRIOXA-13-AZAPENTADECAN-15-OYL)-4-HYDROXY-N-(4-(4-METHYLTHIAZOL-5-YL)BENZYL)PYRROLIDINE-2-CARBOXAMIDE] | – | – | > 30 | > 30
13 | COc1cc(OCCCCCCOCCOCC(=O)N[C@H](C(=O)N2C[C@H](O)C[C@H]2C(=O)NCc2ccc(-c3scnc3C)cc2)C(C)(C)C)c(C)cc1-n1nnc(S(=O)(=O)c2ccc(C(C)(C)C)cc2)c1C [Compound 28, (2S,4R)-1-((S)-2-(2-(2-((6-(4-(4-((4-(TERT-BUTYL)PHENYL)SULFONYL)-5-METHYL-1H-1,2,3-TRIAZOL-1-YL)-5-METHOXY-2-METHYLPHENOXY)HEXYL)OXY)ETHOXY)ACETAMIDO)-3,3-DIMETHYLBUTANOYL)-4-HYDROXY-N-(4-(4-METHYLTHIAZOL-5-YL)BENZYL)PYRROLIDINE-2-CARBOXAMIDE] | – | – | > 30 | > 30
14 | COc1cc(OCCOCCOCCOCCOCCC(=O)N[C@H](C(=O)N2C[C@H](O)C[C@H]2C(=O)NCc2ccc(-c3scnc3C)cc2)C(C)(C)C)c(C)cc1-n1nnc(S(=O)(=O)c2ccc(C(C)(C)C)cc2)c1C [Compound 29, (2S,4R)-1-((S)-17-(TERT-BUTYL)-1-(4-(4-((4-(TERT-BUTYL)PHENYL)SULFONYL)-5-METHYL-1H-1,2,3-TRIAZOL-1-YL)-5-METHOXY-2-METHYLPHENOXY)-15-OXO-3,6,9,12-TETRAOXA-16-AZAOCTADECAN-18-OYL)-4-HYDROXY-N-(4-(4-METHYLTHIAZOL-5-YL)BENZYL)PYRROLIDINE-2-CARBOXAMIDE] | – | – | > 30 | > 30
15 | COc1cc(OCC(=O)NCCOCCOCCOCCOCC(=O)N[C@H](C(=O)N2C[C@H](O)C[C@H]2C(=O)NCc2ccc(-c3scnc3C)cc2)C(C)(C)C)c(C)cc1-n1nnc(S(=O)(=O)c2ccc(C(C)(C)C)cc2)c1C [Compound 30, (2S,4R)-1-((S)-2-(TERT-BUTYL)-20-(4-(4-((4-(TERT-BUTYL)PHENYL)SULFONYL)-5-METHYL-1H-1,2,3-TRIAZOL-1-YL)-5-METHOXY-2-METHYLPHENOXY)-4,19-DIOXO-6,9,12,15-TETRAOXA-3,18-DIAZAICOSANOYL)-4-HYDROXY-N-(4-(4-METHYLTHIAZOL-5-YL)BENZYL)PYRROLIDINE-2-CARBOXAMIDE] | – | – | > 30 | > 30
16 | COc1cc(OCCOCCOCCOCCOCCOCCC(=O)N[C@H](C(=O)N2C[C@H](O)C[C@H]2C(=O)NCc2ccc(-c3scnc3C)cc2)C(C)(C)C)c(C)cc1-n1nnc(S(=O)(=O)c2ccc(C(C)(C)C)cc2)c1C [Compound 31, (2S,4R)-1-((S)-20-(TERT-BUTYL)-1-(4-(4-((4-(TERT-BUTYL)PHENYL)SULFONYL)-5-METHYL-1H-1,2,3-TRIAZOL-1-YL)-5-METHOXY-2-METHYLPHENOXY)-18-OXO-3,6,9,12,15-PENTAOXA-19-AZAHENICOSAN-21-OYL)-4-HYDROXY-N-(4-(4-METHYLTHIAZOL-5-YL)BENZYL)PYRROLIDINE-2-CARBOXAMIDE] | – | – | > 30 | > 30
17 | COc1cc(OCCCCCCOCCCCCOCCCCCC(=O)N[C@H](C(=O)N2C[C@H](O)C[C@H]2C(=O)NCc2ccc(-c3scnc3C)cc2)C(C)(C)C)c(C)cc1-n1nnc(S(=O)(=O)c2ccc(C(C)(C)C)cc2)c1C [Compound 32, (2S,4R)-1-((S)-2-(6-((5-((6-(4-(4-((4-(tert-Butyl)phenyl)sulfonyl)-5-methyl-1H-1,2,3-triazol-1-yl)-5-methoxy-2-methylphenoxy)hexyl)oxy)pentyl)oxy)hexanamido)-3,3-dimethylbutanoyl)-4-hydroxy-N-(4-(4-methylthiazol-5-yl)benzyl)pyrrolidine-2-carboxamide] | – | – | > 30 | > 30
18 | COc1cc(OCCCCCCOCCOCCOCCCCCC(=O)N[C@H](C(=O)N2C[C@H](O)C[C@H]2C(=O)NCc2ccc(-c3scnc3C)cc2)C(C)(C)C)c(C)cc1-n1nnc(S(=O)(=O)c2ccc(C(C)(C)C)cc2)c1C [Compound 33, (2S,4R)-1-((S)-2-(tert-Butyl)-22-(4-(4-((4-(tert-butyl)phenyl)sulfonyl)-5-methyl-1H-1,2,3-triazol-1-yl)-5-methoxy-2-methylphenoxy)-4-oxo-10,13,16-trioxa-3-azadocosanoyl)-4-hydroxy-N-(4-(4-methylthiazol-5-yl)benzyl)pyrrolidine-2-carboxamide] | – | – | > 30 | > 30
